This note sets out measurements from patent US11724999B2, “Inhibitors of RAS-effector protein interactions” (Oxford University Innovation Limited, priority 2018, dated 2023).

The assay deals with T1, GST-human KRas166 (G12V) GPPNHP (Homo sapiens, UniProt P01116, G12V).
T1 construct: made in house; host or cells: E. coli C41(DE3)
Kind of assay: KRas small-molecule screening by SPR (BIACORE T200). The format is binding. As to conditions: compound at final concentration of 100 uM; immobilised GST-KRAS166 (G12V) GPPNHP, GST reference channel. The procedure: For SPR assays pGEX-KRAS(G12V) plasmid was transformed into E. coli C41(DE3). Bacterial cells were cultured at 37° C. to an OD600 of 0.6 and induced with IPTG (final 0.1 mM) at 18° C. overnight. The GST fusion proteins were extracted from bacteria pellets after cell disruption in 140 mM NaCl, 2.7 mM KCl, […], 1.8 mM KH2PO4, 1 mM EDTA, 2 mM MgCl2 pH 7.4 and purified by glutathione-sepharose column chromatography (GE Healthcare), eluting with 50 mM Tris-HCl pH8.0, 10 mM reduced glutathione, 1 mM DTT, 2 mM MgC2. The eluted proteins were dialysed against 50 mM Tris-HCl pH8.0, 1 mM DTT, 2 mM MgCl2 and concentrated to 10 mg/ml using a Biomax-30 […]-15 centrifugal filter device (Millipore). Purified KRAS protein was loaded with GPPNHP as described elsewhere (Pacold et al., 2000). Loaded protein was then purified by gel filtration on a HiLoad Superdex-75 HR column (GE Healthcare) in 1×PBS pH7.4, 5 mM MgCl2 and concentrated for storage.
To a previously immobilized CM5 chip (GE Healthcare BR-1005-30) with anti GST antibody via amine coupling method, GST in channel 1 and GST-human KRas166 (G12V) GPPNHP in channel 2 were immobilised. GST was immobilised between 2,000 and 5,000 Response units. KRAS166 (G12V) was immobilized between 10,000 to 15,000 Response Units.
In a 96 well plate, compounds were diluted in […], 5 mM MgCl2 and 5% DMSO Buffer to a final concentration of 100 uM. DCAI was used as positive control. Experiment also included a solvent correction curve for 5% DMSO. Screening and evaluation of the protein immobilization and the compounds screening was done accordingly to the BIACORE T200 control and evaluation software.
Protein immobilisation: 10,000 RU; average fragment 300 Da in size. Rmax=(MWA/MWL)×RL×SM MWA is the molecular weight of the analyte in Da MWL is the molecular weight of the ligand in Da RL is the immobilization level in RU SM is the molar stoichiometry (assume 1:1) Rmax=300/47,500×10,000×1 Rmax=63 RU. Cell Viability Assay protocols
(SPR reads the build-up and loss of mass on a sensor chip optically.)

Molecules are shown by their SMILES.

With `CN1CCN(Cc2ccc(C(=O)NC[C@@H]3COc4ccc(OCc5cncc(Cl)c5)cc4O3)o2)CC1` [Example 25, 5-(4-Methyl-piperazin-1-ylmethyl)-furan-2-carboxylic acid [(R)-7-(5-chloro-pyridin-3-ylmethoxy)-2,3-dihydro-benzo[1,4]dioxin-2-ylmethyl]-amide], the “SPR Response Units” value stood at 45 Response Units.
`O=C(NCc1ccc(CN2CCOCC2)cc1)C1COc2ccc(OCc3ccccc3)cc2O1` (stereo not shown) [Example 65, 7-Benzyloxy-2,3-dihydro-benzo[1,4]dioxine-2-carboxylic acid 4-morpholin-4-ylmethyl-benzylamide]: the “SPR Response Units” value was 46 Response Units.
Take `O=C(C1COc2ccc(OCc3ccccc3)cc2O1)N1CCN(CC2CCOCC2)CC1` (stereo not shown) [Example 64, (7-Benzyloxy-2,3-dihydro-benzo[1,4]dioxin-2-yl)-[4-(tetrahydro-pyran-4-ylmethyl)-piperazin-1-yl]-methanone]: the “SPR Response Units” value came to 36 Response Units.
In the case of `O=C(NCc1cccc(CN2CCOCC2)c1)C1COc2ccc(OCc3ccccc3)cc2O1` (stereo not shown) [Example 66, 7-Benzyloxy-2,3-dihydro-benzo[1,4]dioxine-2-carboxylic acid 3-morpholin-4-ylmethyl-benzylamide] it was 53 Response Units; in that of `NC[C@@H]1COc2ccc(OCc3ccccc3)cc2O1` [Example 86, C—((R)-7-Benzyloxy-2,3-dihydro-benzo[1,4]dioxin-2-yl)-methylamine], 28 Response Units.
`O=C(NCc1cccnc1)C1COc2ccc(OCc3ccccc3)cc2O1` (stereo not shown) [Example 67, 7-Benzyloxy-2,3-dihydro-benzo[1,4]dioxine-2-carboxylic acid (pyridin-3-ylmethyl)-amide]: the “SPR Response Units” value turned out to be 49 Response Units.
Regarding `CN1CCC(COc2ccc3c(c2)O[C@H](CNC(=O)c2ncco2)CO3)CC1` [Example 21, Oxazole-2-carboxylic acid [(R)-7-(1-methyl-piperidin-4-ylmethoxy)-2,3-dihydro-benzo[1,4]dioxin-2-ylmethyl]-amide], the “SPR Response Units” value worked out at 9 Response Units.
The figure for `c1ccc(COc2ccc3c(c2)O[C@H](CNCC2COCCN2)CO3)cc1` (stereo partly drawn) [Example 57, ((R)-7-Benzyloxy-2,3-dihydro-benzo[1,4]dioxin-2-ylmethyl)-morpholin-3-ylmethyl-amine] is 29 Response Units; for `O=C(NC[C@@H]1COc2ccc(OCc3ccccc3)cc2O1)C1CCN(Cc2ccco2)CC1` [Example 15, 1-Furan-2-ylmethyl-piperidine-4-carboxylic acid ((R)-7-benzyloxy-2,3-dihydro-benzo[1,4]dioxin-2-ylmethyl)-amide] it is 33 Response Units.
In the case of `O=C(NC[C@@H]1COc2ccc(OCc3ccccc3)cc2O1)C1CCOCC1` [Example 5, Tetrahydro-pyran-4-carboxylic acid ((R)-7-benzyloxy-2,3-dihydro-benzo[1,4]dioxin-2-ylmethyl)-amide] it was 25 Response Units.
In the case of `O=C(NCC1COCCN1)C1COc2ccc(OCc3ccccc3)cc2O1` (stereo not shown) [Example 76, 7-Benzyloxy-2,3-dihydro-benzo[1,4]dioxine-2-carboxylic acid (morpholin-3-ylmethyl)-amide] it was 48 Response Units; in that of `Cc1n[nH]c(C)c1CC(=O)NC[C@@H]1COc2ccc(OCc3ccccc3)cc2O1` [Example 12, N-((R)-7-Benzyloxy-2,3-dihydro-benzo[1,4]dioxin-2-ylmethyl)-2-(3,5-dimethyl-1H-pyrazol-4-yl)-acetamide], 53 Response Units; in that of `O=C(NCc1ccnc(F)c1)C1COc2ccc(OCc3ccccc3)cc2O1` (stereo not shown) [Example 72, 7-Benzyloxy-2,3-dihydro-benzo[1,4]dioxine-2-carboxylic acid (2-fluoro-pyridin-4-ylmethyl)-amide], 12 Response Units.
Turning to `O=C(CC1CCNCC1)NC[C@@H]1COc2ccc(OCc3ccccc3)cc2O1` [Example 16, N-((R)-7-Benzyloxy-2,3-dihydro-benzo[1,4]dioxin-2-ylmethyl)-2-piperidin-4-yl-acetamide], the “SPR Response Units” value is 25 Response Units.
In the case of `CN1CCN(Cc2ccc(C(=O)NC[C@@H]3COc4ccc(OCc5ccc(Cl)cn5)cc4O3)o2)CC1` [Example 26, 5-(4-Methyl-piperazin-1-ylmethyl)-furan-2-carboxylic acid [(R)-7-(5-chloro-pyridin-2-ylmethoxy)-2,3-dihydro-benzo[1,4]dioxin-2-ylmethyl]-amide] it was 48 Response Units; in that of `CNC(=O)C(NC[C@@H]1COc2ccc(OCc3ccccc3)cc2O1)c1ccccc1` (stereo partly drawn) [Example 49, 2-[((R)-7-Benzyloxy-2,3-dihydro-benzo[1,4]dioxin-2-ylmethyl)-amino]-N-methyl-2-phenyl-acetamide], 67 Response Units; in that of `O=C(Cc1cccnc1)NC[C@@H]1COc2ccc(OCc3ccccc3)cc2O1` [Example 11, N-((R)-7-Benzyloxy-2,3-dihydro-benzo[1,4]dioxin-2-ylmethyl)-2-pyridin-3-yl-acetamide], 68 Response Units.
`O=C(NC[C@@H]1COc2ccc(OCc3cccnc3)cc2O1)c1ncco1` [Example 19, Oxazole-2-carboxylic acid [(R)-7-(pyridin-3-ylmethoxy)-2,3-dihydro-benzo[1,4]dioxin-2-ylmethyl]-amide]: the “SPR Response Units” value stood at 40 Response Units.
The figure for `CC(=O)N1CCC(NC[C@@H]2COc3ccc(OCc4ccccc4)cc3O2)CC1` [Example 34, 1-{4-[((R)-7-Benzyloxy-2,3-dihydro-benzo[1,4]dioxin-2-ylmethyl)-amino]-piperidin-1-yl}-ethanone] is 23 Response Units; for `O=C1CN(c2ccccn2)C(=O)N1C[C@@H]1COc2ccc(OCc3ccccc3)cc2O1.O=CO` [Example 78, 3-((R)-7-Benzyloxy-2,3-dihydro-benzo[1,4]dioxin-2-ylmethyl)-1-pyridin-2-yl-imidazolidine-2,4-dione] it is 28 Response Units; for `CN1CCC(CC(=O)NC[C@@H]2COc3ccc(OCc4ccccc4)cc3O2)CC1` [Example 8, N-((R)-7-Benzyloxy-2,3-dihydro-benzo[1,4]dioxin-2-ylmethyl)-2-(1-methyl-piperidin-4-yl)-acetamide] it is 24 Response Units.
In the case of `c1ccc(COc2ccc3c(c2)O[C@H](CNC2CCc4ccccc42)CO3)cc1` (stereo partly drawn) [Example 48, ((R)-7-Benzyloxy-2,3-dihydro-benzo[1,4]dioxin-2-ylmethyl)-indan-1-yl-amine] it was 24 Response Units; in that of `O=C(NC[C@@H]1COc2ccc(OCc3ccccc3)cc2O1)C1CCNCC1` [Example 17, Piperidine-4-carboxylic acid ((R)-7-benzyloxy-2,3-dihydro-benzo[1,4]dioxin-2-ylmethyl)-amide], 22 Response Units; in that of `O=C(NC[C@@H]1COc2ccc(OCc3cn[nH]c3)cc2O1)c1ncco1` [Example 20, Oxazole-2-carboxylic acid [(R)-7-(1H-pyrazol-4-ylmethoxy)-2,3-dihydro-benzo[1,4]dioxin-2-ylmethyl]-amide], 40 Response Units.
The figure for `CN(C)CCC(=O)NC[C@@H]1COc2ccc(OCc3ccccc3)cc2O1` [Example 6, N-((R)-7-Benzyloxy-2,3-dihydro-benzo[1,4]dioxin-2-ylmethyl)-3-dimethylamino-propionamide] is 21 Response Units; for `N[C@H]1CC[C@@H](NC(=O)C2COc3ccc(OCc4ccccc4)cc3O2)CC1` (stereo partly shown) [Example 75, 7-Benzyloxy-2,3-dihydro-benzo[1,4]dioxine-2-carboxylic acid (4-amino-cyclohexyl)-amide] it is 51 Response Units; for `O=C(NCc1cn[nH]c1)C1COc2ccc(OCc3ccccc3)cc2O1` (stereo not shown) [Example 73, 7-Benzyloxy-2,3-dihydro-benzo[1,4]dioxine-2-carboxylic acid (1H-pyrazol-4-ylmethyl)-amide] it is 33 Response Units.
`CN1CCN(C(=O)NC[C@@H]2COc3ccc(OCc4ccccc4)cc3O2)CC1` [Example 82, 4-methyl-piperazine-1-carboxylic acid ((R)-7-benzyloxy-2,3-dihydro-benzo[1,4]dioxin-2-ylmethyl)-amide]: the “SPR Response Units” value is on record as 63 Response Units.
